Three molecules from patent US20170254801A1, “METHOD FOR IDENTIFYING SUBSTANCES WHICH PRIME A DEFENSE RESPONSE” (RHEINISCH-WESTFÄLISCHE TECHNISCHE HOCHSCHULE AACHEN (RWTH), priority 2014, published 2017) can be followed below.

Test [1] relates to Petroselinum crispum cells. As to the kind of experiment: Oxygen transfer rate (RAMOS) in suspension cells treated with substance and then with the elicitor Pep13. It is filed as cell-based. The note with it: 200 μM 72 hours after inoculation; for oxygen transfer rate in comparison to untreated cells and to cells only treated with Pep13 (specificity): 1 nM Pep13 96 hours after inoculation, FIG. 2. As to the method:
12.5 ml of a suspension of Petroselinum crispurn cells were inoculated in 250 ml shaking flasks containing 37.5 ml of modified Gamborg B5 medium and cultured at a temperature of 25° C. at a shaking frequency of 180 U/min and a shaking diameter of 5 cm in a RAMOS device (HiTec Zang, Herzogenrath). During the culture the oxygen partial pressure of the gas phase in the head space of the flask was measured and the oxygen transfer rate was calculated therefrom.
In yet another experiment, the cells were treated with 200 μM salicylic acid 72 hours after inoculation and with Pep13 96 hours after inoculation.
In parallel experiments, the cells were either treated with 200 μM salicylic acid, 200 μM 4-chlorsalicylic acid or with 200 μM 3-hydroxy benzoic acid 72 hours after inoculation and then in all experiments 1 nM Pep13 was added 96 hours after inoculation.

The subject of test [2] is Petroselinum crispum cells. As to the kind of experiment: Oxygen transfer rate (RAMOS) in suspension cells after treatment with a defense priming substance or elicitor alone. Format: cell-based. The note with it: 200 μM added 72 hours after inoculation; FIG. 1b. From the text: In the determination of the respiration activity with RAMOS, a measuring cycle is continuously repeated during fermentation. This measuring cycle comprises a measuring phase and a rinsing phase. During the rinsing phase, air is flushed through the measuring flask at a specific flow rate. At the beginning of the measuring phase, inlet and outlet valves of the measuring flask are closed. Respiration of the cells leads to a decrease in the oxygen partial pressure and to an increase in the carbon dioxide partial pressure in the gas headspace of the measuring flask. These partial pressures are monitored by an oxygen sensor and a differential pressure sensor. In addition, a carbon dioxide sensor may be used. Assuming linear changes in the measuring phase, a computer calculates the oxygen transfer rate and the carbon dioxide transfer rate according to the formulas provided above. […]
12.5 ml of a suspension of Petroselinum crispurn cells were inoculated in 250 ml shaking flasks containing 37.5 ml of modified Gamborg B5 medium and cultured at a temperature of 25° C. at a shaking frequency of 180 U/min and a shaking diameter of 5 cm in a RAMOS device (HiTec Zang, Herzogenrath). During the culture the oxygen partial pressure of the gas phase in the head space of the flask was measured and the oxygen transfer rate was calculated therefrom. […]

Molecules are shown by their SMILES.

On to `O=C(O)c1cccc(O)c1` [3-hydroxy benzoic acid], for which, in test [1], the “oxygen transfer rate in comparison to untreated cells and to cells only treated with Pep13 (specificity)” value (from here on “oxygen transfer rate … (specificity)”) is “same increase in the oxygen transfer rate as the addition of Pep13 alone”.
On to `O=C(O)c1ccc(Cl)cc1O` [4-chlorsalicylic acid], for which, in test [1], the “oxygen transfer rate … (specificity)” value is “increase in the oxygen transfer rate”.
Regarding `O=C(O)c1ccccc1O` [salicylic acid], in test [2], the “duration of the increase in oxygen transfer rate” value is reported as “about 48 hours” and the “oxygen transfer rate in comparison to the untreated cells” value is given as “increase in the oxygen transfer rate”. Also, in test [1], the “oxygen transfer rate … (specificity)” value is “increase in the oxygen transfer rate”. Further, the “oxygen transfer rate compared with treatment with Pep13 alone” value in test [1] (Pep13 96 hours after inoculation, FIG. 1d) is on record as “stronger increase in the oxygen transfer rate than the treatment with Pep13 alone”.
